Where two headings read alike, the source gives them in different places.
Assays:
[1] = type: in vivo, male Sprague-Dawley rats; details: cholesterol diet, .2% in food
Procedure: (§1) General feeding experiments were conducted on rats to determine the effect of the amides of this invention on serum and liver lipids of animals fed a basal diet and a basal diet supplemented with cholesterol. In addition, the effect of these drugs on serum lipoproteins was studied as well as their effect on body weight, gross feed efficiency, liver weight, appetite and energy utilization with respect to their metabolic size. Male, Sprague-Dawley rats weighing 150-175 g. were housed in cages with raised wire floors in a room kept at a temperature of 24°-26° C. with a 12-hour day and 12-hour night cycle, fed ad libitum a semipurified diet consisting by weight % composition: vitamin-free casein, 20; glucose, 63; hydrogenated coconut oil, 10; GBI Vitamin Fortification Mixture, Cat. #40060 obtained from General Biochemical Company of Chargrin Falls, Ohio, 1; modified salt mix of Williams and Briggs, Cat. #170911 obtained from General Biochemical Company, 4; and cellulose, 2; and watered. The modified salt mix provided the following amounts in grams of elements per Kg. of diet:
(§2) Diets were supplemented with 0.5% cholic acid, 1% cholesterol, and drug at the expense of glucose. The experimental period was 18-21 days with body weight and food measured at specified intervals. Animals were fasted overnight and terminally bled by cardiac puncture. Blood was anti-coagulated with ethylenediamine tetracetic acid and plasma was separated by centrifugation, and stored at -20° C. Livers were excised, weighed, and stored at -20° C. All samples remained at this temperature until they were analyzed for total lipids, total cholesterol, triglycerides and phospholipids. Gross feed efficiency together with the effect of metabolic size on food intake and the effect of drug on energy utilization were determined.
(§3) Results of testing the mixed amides of Example 5 an reference compounds in rats on a basal diet with added cholesterol according to the foregoing procedure for dietary induced hyperlipemia are in Tables 4 and 5.

Serum and Liver Lipids [2] = experiment: Dietary-induced hyperlipemia test, basal diet with cholesterol: serum and liver lipids (Table 5); type: in vivo, male Sprague-Dawley rats; details: .2% in food, ± S.D.
Procedure: as §1, §2, §3

Serum Lipoproteins = experiment: Serum lipoproteins of rats fed semi-purified diet supplemented with cholesterol (Table 7); type: in vivo; details: .2% in food
Procedure: as §1, §2
^a VLDL, very low density lipoproteins; LDL, low density lipoproteins
and HDL, high density lipoproteins as determined on a Beckman-Gilford

[3] = rats; seemed to be caused by reduced feed intake; cited from earlier work
[4] = tested on: β-Sterol Synthesis, Liver; experiment: β-Sterol synthesis, acetate-1-14C incorporation, liver (Table 8); type: in vivo, male Sprague-Dawley rats
Procedure: (§4) The effect of the mixed amides of Example 5 and reference compounds on β Sterol synthesis was determined by a modified procedure of Hill and Dvornik Arch. Biochem. Biophys. 114 (1966), 88. Male Sprague-Dawley rates weighing 127-175 g. were freely provided a basal semi-purified diet and water. The rats were housed in cages with raised wire floors in a room kept at a temperature of 24°-26° C. with a 12-hour day-12-hour night cycle. The cycle was reversed so the night cycle corresponded to the working day to take advantage of the circadian rhythm that favors cholesterol synthesis. The test period was five days and 20 μCi sodium acetate-1-^14 C (Sp. act. 56 mCi/m mole) administered intraperitoneally. Animals were sacrificed under carbon dioxide and the distal 10 cm of the ileum as well as the median and left liver lobes excised and homogenized. Subsequently, the β Sterols were isolated as the digitonide and the radioactivity determined in a Packard Tricarb Liquid Scintillation Spectrometer Model 3385 using 0.5% 2,5 diphenyloxazole and 8% naphthalene in a solvent mixture of 40% toluene, 40% dioxane and 20% absolute ethanol. Data for the effect of the mixed amides of Example 5 on the synthesis of nonsaponifiable substances and β Sterols as determined by the Digitonide method are shown in Table 8. […] A prior art compound, α-methylbenzyllinoleamide at 140 mg/kg, p.o. had no effect on cholesterol synthesis in either tissue.

[5] = tested on: β-Sterol Synthesis, Ileum; experiment: β-Sterol synthesis, acetate-1-14C incorporation, ileum (Table 8); type: in vivo, male Sprague-Dawley rats
Procedure: as §4

Serum and Liver Lipids [6] = experiment: Dietary-induced hyperlipemia test, basal semi-purified diet: serum and liver lipids (Table 3); type: in vivo, male Sprague-Dawley rats; details: .2% in food, ± S.D.
Procedure: as §1, §2
(§5) Results of testing the mixed amides of Example 5 and reference compounds in rats on a basal diet according to the foregoing procedure for dietary induced hyperlipemia are in Tables 2 and 3.

[7] = Dietary-induced hyperlipemia test, basal semi-purified diet: liver weight, body weight, food consumption (Table 2); type: in vivo, male Sprague-Dawley rats; details: .2% in food
Procedure: as §1, §2, §5

[8] = tested on: Serum Triglycerides and Cholesterol; experiment: Triton-induced hyperlipidemia test (Table 1); type: in vivo, male Sprague-Dawley rats; details: 140 mg/kg p.o.; for Serum Cholesterol / Serum Triglycerides: ± SD
Procedure: Fasted, male Sprague-Dawley rats weighing 250-350 g were fed ad libitum a commercial lab chow with free access to water. The animals were fasted overnight and administered Triton-WR-1339 (produced by Ruger Chemical Company, Inc., Irvington, New Jersey) as described by Schurr et al.; Lipids 7 68(1972) except the procedure was modified to use the saphenous vein and divided doses of 70 mg/kg. The rats were anesthetized with sodium pentobarbital and terminally bled by heart puncture. Serum was stored at -20° C. until it was analyzed for total cholesterol and triglycerides. Comparison was also made with clofibrate.

Serum and Liver Lipids [9] = experiment: Linoleamide of norfenfluramine in rats fed a hypercholesteremic diet: serum and liver lipids (Table 6); type: in vivo; details: 0.2% in food
Procedure: as §1, §2
(a) ± values are standard deviation of 10 animals per group.
(b) Semi-purified diet supplemented with 1% cholesterol and 0.5% cholic
acid at expense of glucose.

[10] = Motor activity, modification of the method of Cook et al.; type: in vivo, female albino mice, ICR strain; details: 6.5 mg/kg, i.p.
From the text: Motor activity of norfenfluramine and the amides of norfenfluramine of this invention were compared by determination of the activity in female, albino mice of the ICR strain by a modification of the method of Cook et al. in J. Pharmac. Exp. Ther. 113:11a (1955).

[11] = Neurotoxicity, tremors and lethality; type: in vivo, mice; details: i.p.

With `CCCCC/C=C\C/C=C\CCCCCCCC(=O)NC(C)c1ccccc1` (stereo not drawn) [α-methylbenzyl linoleamide] the “Food Consumed” value [1] was 311 g, the “Gross Feed Efficiency” value ([1]; gross weight gain/total food consumed in grams) was “.177” and the “Body wt, Final” value ([1]; ± S.D.) was 192 ± 25 g. The “Liver wt per 100 g body wt.” value ([1]; ± S.D.) was 3.7 ± .2 g, the “Liver wt, Total” value ([1]; ± S.D.) was 7.1 ± 1.3 g and the “Liver Triglycerides” value (Serum and Liver Lipids [2]) was 4.35 ± 2.88 mg/g. For the same compound, the “Serum Cholesterol” value (Serum and Liver Lipids [2]; p<.05 for Ex. 5) was 197.75 ± 23.24 mg/100 ml, the “Liver Cholesterol” value (Serum and Liver Lipids [2]; p<.05 for all) was 8.33 ± 1.37 mg/g and the “Liver Lipids, Total” value (Serum and Liver Lipids [2]; p<.05 for all) was 84.00 ± 14.26 mg/g. For the same compound, the “Serum Lipids, Total” value (Serum and Liver Lipids [2]; p<.05 for all) was 453.25 ± 90.58 mg/100 ml, the “Serum Triglycerides” value (Serum and Liver Lipids [2]; p<.05 for clofibrate) was 262.50 ± 51.88 mg/100 ml and the “Albumin, Percentage Composition” value (Serum Lipoproteins) was 15.65%. For the same compound, the “HDL, Percentage Composition” value (Serum Lipoproteins) was 29.62%, the “LDL, Percentage Composition” value (Serum Lipoproteins) was 18.51% and the “VLDL, Percentage Composition” value (Serum Lipoproteins) was 36.19%. For the same compound, the “gain in body weight” value [3] was “did suppress gain in body weight”, the “Acetate-1-14C incorporated, Digitonide” value ([4]; Liver, 140 mg/kg p.o., ± S.D.) was 3.882 ± 2.887 n moles/g tissue and the “Acetate-1-14C incorporated, Non-saponifiable” value ([4]; Liver, 140 mg/kg p.o., ± S.D.) was 4.533 ± 3.131 n moles/g tissue. For the same compound, the “effect on cholesterol synthesis” value ([4]; liver, 140 mg/kg, p.o.) was “no effect”, the “Acetate-1-14C incorporated, Digitonide” value ([5]; Ileum, 140 mg/kg p.o., ± S.D.) was 5.947 ± .654 n moles/g tissue and the “Acetate-1-14C incorporated, Non-saponifiable” value ([5]; Ileum, 140 mg/kg p.o., ± S.D.) was 7.648 ± 1.664 n moles/g tissue. The “effect on cholesterol synthesis” value ([5]; ileum, 140 mg/kg, p.o.) was “no effect”, the “Liver Cholesterol” value (Serum and Liver Lipids [6]) was 3.34 ± .24 mg/g and the “Liver Lipids, Total” value (Serum and Liver Lipids [6]) was 40.05 ± 11.37 mg/g. The “Liver Triglycerides” value (Serum and Liver Lipids [6]) was 4.85 ± 2.71 mg/g, the “Serum Cholesterol” value (Serum and Liver Lipids [6]) was 77.50 ± 3.91 mg/100 ml and the “Serum Lipids, Total” value (Serum and Liver Lipids [6]) was 199.80 ± 60.9 mg/100 ml. For the same compound, the “Serum Triglycerides” value (Serum and Liver Lipids [6]) was 72.33 ± 29.92 mg/100 ml, the “Food Consumed” value [7] was 331 g and the “Gross Feed Efficiency” value ([7]; gross weight gain in grams/total food consumed in grams) was “.210”. The “Body wt, Final” value ([7]; ± S.D.) was 226 ± 30 g, the “Liver wt per 100 g body wt.” value ([7]; ± S.D.) was 2.9 ± .3 g and the “Liver wt, Total” value ([7]; ± S.D.) was 6.7 ± .8 g.
In the case of `CCCCC/C=C\C/C=C\CCCCCCCC(=O)NC(C)Cc1cccc(C(F)(F)F)c1` (stereo not drawn) [Ex. 1, N-[1-methyl-2-(3-trifluoromethylphenyl)ethyl]octadeca-9,12-dienamide(cis-cis)], the “% Change Triglycerides” value ([8]; Test Group I, vs control) is reported as -54%, the “Serum Cholesterol” value ([8]; Test Group I) is reported as 209.0 ± 16.4 mg/100 ml and the “Serum Triglycerides” value ([8]; Test Group I) is reported as 268.7 ± 69.6 mg/100 ml. The “Liver Cholesterol” value (Serum and Liver Lipids [9]; SD 0.73 (10 animals), p<.05) was 7.15 mg/g, the “Liver Triglycerides” value (Serum and Liver Lipids [9]; SD 3.67 (10 animals), p<.05) was 5.59 mg/g and the “Serum Phospholipids” value (Serum and Liver Lipids [9]; SD 18.4 (10 animals)) was 105.4 mg/100 ml. The “Serum Cholesterol” value (Serum and Liver Lipids [9]; SD 30 (10 animals), p<.05) was 212 mg/100 ml, the “Serum Triglycerides” value (Serum and Liver Lipids [9]; SD 62 (10 animals), p<.05) was 156 mg/100 ml and the “Liver Phospholipids” value (Serum and Liver Lipids [9]; SD printed + 8.75 (10 animals)) was 24.1 mg/g.
In the case of `CC(N)Cc1cccc(C(F)(F)F)c1` (stereo not shown) [norfenfluramine], the “effect on motor activity” value [10] is reported as “strong effect”, the tremors ([11]; 40 mg/kg) is reported as “tremors were observed” and the lethality ([11]; 100 mg/kg) is reported as “lethality”.
With `CCCCCCCC/C=C/CCCCCCCC(=O)NC(C)Cc1cccc(C(F)(F)F)c1` (stereo not drawn) [Ex.3, N-[1-methyl-2-(3-trifluoromethylphenyl)ethyl]octadec-9-enamide trans isomer] the “% Change Cholesterol” value ([8]; Test Group IV, vs control) was -25%, the “% Change Triglycerides” value ([8]; Test Group IV, vs control) was -58% and the “Serum Cholesterol” value ([8]; Test Group IV) was 210.0 ± 47.8 mg/100 ml. For the same compound, the “Serum Triglycerides” value ([8]; Test Group IV) was 260.0 ± 137.8 mg/100 ml.

Reference: patent US4115587A, “Fatty acid amides of norfenfluramine and compositions and methods thereof” (A. H. Robins Company, Inc., priority 1976, dated 1978)
